In assay [1] the target is T1, PtmO5 (Streptomyces platensis, UniProt D8L2V0).
T1 sequence (D8L2V0 1-430): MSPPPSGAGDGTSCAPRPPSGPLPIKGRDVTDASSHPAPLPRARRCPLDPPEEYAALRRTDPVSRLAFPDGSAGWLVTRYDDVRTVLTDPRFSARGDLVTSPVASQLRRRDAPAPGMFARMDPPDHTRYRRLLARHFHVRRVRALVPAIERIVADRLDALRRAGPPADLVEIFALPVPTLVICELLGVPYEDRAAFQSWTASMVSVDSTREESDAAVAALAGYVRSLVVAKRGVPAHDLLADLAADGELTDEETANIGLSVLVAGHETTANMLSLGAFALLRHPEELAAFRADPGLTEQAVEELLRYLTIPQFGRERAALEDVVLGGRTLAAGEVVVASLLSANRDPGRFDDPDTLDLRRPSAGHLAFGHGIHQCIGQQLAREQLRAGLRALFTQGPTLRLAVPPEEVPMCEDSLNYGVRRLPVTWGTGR
The assay is described as follows: type I binding spectra. To be noted: heme site, poor solubility of 4.

Assay [2] deals with T1, PtmO5. The experiment in a line: type I difference spectra titration, nonlinear regression of A390-A422. Format: binding. Particulars: 0-5 μM ligand; type I shift 422 to 390 nm; heme site.

Structures are written as SMILES.

As a reminder, the Kd is the equilibrium constant for the complex coming apart. In assay [1], `C=C1C[C@@]23CC[C@H]4[C@@](C)(CCC[C@@]4(C)C(=O)O)[C@@H]2CC[C@@H]1C3` [compound 4, ent-kaur-16-en-19-oic acid] came in with a Kd of 750 ± 190 nM.
For the compound `C[C@@]12CCC[C@@](C)(C(=O)O)[C@H]1CC[C@@]13C[C@@H](CC[C@H]12)[C@](C)(O)C3` [compound 1, (16R)-hydroxy-ent-kauran-19-oic acid], in assay [2], the Kd came to 860 ± 70 nM.

These data come from publication PMC6211292 (Journal of the American Chemical Society, 2018).
